The values below come from patent publication US20240376099A1, “COMPOUNDS AND COMPOSITIONS AS INHIBITORS OF ENDOSOMAL TOLL-LIKE RECEPTORS” (Novartis AG, priority 2016, published 2024).

The target of the test is T1, TLR8 (Homo sapiens, UniProt Q9NR97).
T1 sequence (Q9NR97 27-1041): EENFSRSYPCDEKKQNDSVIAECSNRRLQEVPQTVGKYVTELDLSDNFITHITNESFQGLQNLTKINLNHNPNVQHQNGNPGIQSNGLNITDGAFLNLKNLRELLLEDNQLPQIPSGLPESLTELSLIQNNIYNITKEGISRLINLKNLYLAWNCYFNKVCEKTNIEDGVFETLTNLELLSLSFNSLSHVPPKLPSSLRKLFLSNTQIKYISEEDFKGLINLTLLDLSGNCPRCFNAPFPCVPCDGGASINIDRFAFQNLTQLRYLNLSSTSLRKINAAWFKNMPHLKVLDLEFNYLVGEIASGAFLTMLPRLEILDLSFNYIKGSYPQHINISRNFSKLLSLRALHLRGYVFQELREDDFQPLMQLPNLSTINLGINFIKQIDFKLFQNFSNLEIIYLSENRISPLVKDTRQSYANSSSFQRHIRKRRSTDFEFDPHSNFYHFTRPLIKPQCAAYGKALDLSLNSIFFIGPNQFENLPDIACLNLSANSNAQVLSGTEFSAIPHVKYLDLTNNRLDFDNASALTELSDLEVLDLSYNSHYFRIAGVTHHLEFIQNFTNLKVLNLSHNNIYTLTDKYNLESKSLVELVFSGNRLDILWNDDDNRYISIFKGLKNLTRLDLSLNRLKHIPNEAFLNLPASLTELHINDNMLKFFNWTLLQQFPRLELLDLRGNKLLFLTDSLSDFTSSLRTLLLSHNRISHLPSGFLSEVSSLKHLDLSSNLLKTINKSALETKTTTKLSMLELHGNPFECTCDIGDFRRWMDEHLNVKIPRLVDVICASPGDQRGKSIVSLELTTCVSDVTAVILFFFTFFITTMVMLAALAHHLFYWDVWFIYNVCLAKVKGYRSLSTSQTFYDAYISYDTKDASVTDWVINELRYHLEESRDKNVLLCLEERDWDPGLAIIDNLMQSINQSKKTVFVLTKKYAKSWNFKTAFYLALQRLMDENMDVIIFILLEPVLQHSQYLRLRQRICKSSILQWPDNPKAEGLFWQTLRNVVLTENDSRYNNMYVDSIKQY
In words: huPBMC TLR8 Antagonist IL-6 TR-FRET Assay. It counts as cell-based. The arrangement: Fresh blood was collected from normal human donors; endogenous in cells; host or cells: human PBMCs from fresh donor blood. As to conditions: human PBMCs stimulated with ssRNA40 1 μg/ml (DOTAP), 14-16 hrs; IL-6 TR-FRET read-out. The method, then: Compounds were generally serially diluted (1/3) in DMSO and plated on sterile 384 well tissue culture plates and stored until ready for use. Each ten-point dilution was typically plated in triplicate in parallel rows.
Fresh blood was collected from normal human donors underwritten informed consent in heparinized syringes on the morning of the assay. The blood was diluted in RPMI-1640 medium and the white blood cells were separated from red blood cells by centrifugation (800 g 15′ 0 acceleration, 0 brake) on a Ficoll cushion. Peripheral blood mononuclear cells (PBMCs) were separated from platelets by a series of low-speed centrifugations (1000RPM 10′) in PBS+5% HI—FBS and 1 mM EDTA. Purified PBMCs were re-suspended in assay medium (RPMI-1640 w Glutamax (Invitrogen) supplemented with 5% HI—FBS, 10 mM HEPES, 50 uM β-mercaptoethanol, and 100 mG/L penicillin/streptomycin cocktail). Viable PBMCs were counted on a hemacytometer and kept on ice until ready for plating.
A 4× concentration (4 ug/ml or 40 ug/ml for TLR8 or TLR7 assays, respectively) of the TLR7/8 agonist ssRNA40 (IDT) was complexed with 10% DOTAP (Roche) in assay medium for 30 min prior to addition to the PBMC suspension (5 million cells/ml). After addition, the final concentration of ssRNA40 in the TLR7/8 stimulated PBMC suspension was 1 μg/ml for TLR8 assay, and 10 μg/mL for the TLR7 assay. The final DOTAP concentration was 2.5%. Diluted PBMCs (5 million cells/ml) were treated with 4×TLR9 agonist ODN2216 (Invivogen). Final concentration of ODN2216 in TLR9 stimulated PBMC suspension was 0.3 μM.
Agonist stimulated PBMCs were plated on the compound treated 384 well plates at 150,000 cells/well. Un-stimulated PBMCs were plated as controls on each plate. Plating volume was 40 μL per well. DMSO concentration in each well was 0.25%.
A separate plate, without compounds, with titrations of ssRNA40 and ODN2216 was included in every assay to measure agonist response of each donor's PBMC prep. Assay plates were placed in a tissue culture incubator (37° C., 5% CO2) for 14-16 hrs. After this incubation, the plates were centrifuged and stored at −20° C. until they were assayed.
IL-6 TR-FRET Assay for TLR8 activity: • 1) Cisbio Human IL-6 kit, 20,000 tests (62TNFPEC), and GNF High-Base TC 384 well plates (cat #789163G) were used; • 2) the Anti-TIL-6 Cryptate conjugate and the Anti-IL-6 XL665 conjugate were diluted 1:20 in Reconstitution Buffer; • 3) a 1:1 mixture of 3 μl/well Anti-IL-6 Cryptate conjugate and 3 μl/well Anti-IL-6 XL665 conjugate was prepared; • 4) 6 μl/well HTRF dilution mastermix was added to 6 μl of transferred supernatant samples in proxiplates; • 5) The plates were incubated for 3 hrs at rt in the dark; and • 6) the levels of IL-6 production was measured using an Envision plate reader (665 nm (emmission)/590 nm (excitation)) with HTRF settings and ratiometric read-out: (XL665 emission/Eu Cryptate emission)×10,000. IFNα2b AlphaLISA Assay for TLR7 or TLR9 activity After thawing the assay plates, 6 μL of supernatant samples were transferred to a low-volume AlphaPlate 384SW (Perkin-Elmer). The concentration of IFNα in supernatants was measured using the IFNα2b AlphaLISA Assay (Perkin-Elmer: AL297F). 3 μL of IFNα acceptor beads/biotinylated antibody solution was added first, using laboratory automation. After an hour incubation, […] of streptavidin […] bead solution was added. The plates containing this mixture were incubated in the dark for an hour and read on an appropriate plate reader at reading parameters set by the manufacturer. (Envision, EnSpire: Perkin-Elmer).

Each structure is given as a SMILES string.

What is called IC50 is the concentration that inhibits the measured activity by half. For the compound `Cc1nc(N2CCc3c(c(C)nn3CC34CCC(N)(CC3)CC4)C2)c2cc[nH]c2n1` [Compound No. 4, 4-((3-methyl-5-(2-methyl-7H-pyrrolo[2,3-d]pyrimidin-4-yl)-4,5,6,7-tetrahydro-1H-pyrazolo[4,3-c]pyridin-1-yl)methyl)bicyclo[2.2.2]octan-1-amine], the IC50 was 511 nM.
In the case of `Cc1cc(N2CCc3c(c(C)nn3CC34CCC(NC(=O)CN(C)C)(CC3)CC4)C2)c2cnn(C)c2n1` [Compound No. 7, N-(4-((5-(1,6-dimethyl-1H-pyrazolo[3,4-b]pyridin-4-yl)-3-methyl-4,5,6,7-tetrahydro-1H-pyrazolo[4,3-c]pyridin-1-yl)methyl)bicyclo[2.2.2]octan-1-yl)-2-(dimethylamino)acetamide] it was 61 nM; in that of `COCCN(CCOC)C12CCC(Cn3nc(C)c4c3CCN(c3cc(C)nc5c3cnn5C)C4)(CC1)CC2` [Compound No. 70, 4-((5-(1,6-dimethyl-1H-pyrazolo[3,4-b]pyridin-4-yl)-3-methyl-4,5,6,7-tetrahydro-1H-pyrazolo[4,3-c]pyridin-1-yl)methyl)-N,N-bis(2-methoxyethyl)bicyclo[2.2.2]octan-1-amine], 379 nM.
Under `COCCN(C)C12CCC(Cn3nc(C)c4c3CCN(c3cc(C)nc5c3cnn5C)C4)(CC1)CC2` [Compound No. 73, 4-((5-(1,6-dimethyl-1H-pyrazolo[3,4-b]pyridin-4-yl)-3-methyl-4,5,6,7-tetrahydro-1H-pyrazolo[4,3-c]pyridin-1-yl)methyl)-N-(2-methoxyethyl)-N-methylbicyclo[2.2.2]octan-1-amine] stands 139 nM; under `Cc1cc(N2CCc3c(c(C)nn3CC34CCC(NCC(=O)N(C)C)(CC3)CC4)C2)c2cnn(C)c2n1` [Compound No. 76, 2-((4-((5-(1,6-dimethyl-1H-pyrazolo[3,4-b]pyridin-4-yl)-3-methyl-4,5,6,7-tetrahydro-1H-pyrazolo[4,3-c]pyridin-1-yl)methyl)bicyclo[2.2.2]octan-1-yl)amino)-N,N-dimethylacetamide], 201 nM; under `Cc1nn(CC23CCC(N)(CC2)CC3)c2c1CN(c1nc(-c3ccc(F)cc3)nc3c1cnn3C)CC2` [Compound No. 83, 4-((5-(6-(4-fluorophenyl)-1-methyl-1H-pyrazolo[3,4-d]pyrimidin-4-yl)-3-methyl-4,5,6,7-tetrahydro-1H-pyrazolo[4,3-c]pyridin-1-yl)methyl)bicyclo[2.2.2]octan-1-amine], 865 nM.
In the case of `Cc1cc(N2CCc3c(c(C)nn3CC34CCC(N)(CC3)CC4)C2)c2ccccc2n1` [compound 62, -((3-methyl-5-(2-methylquinolin-4-yl)-4,5,6,7-tetrahydro-1H-pyrazolo[4,3-c]pyridin-1-yl)methyl)bicyclo[2.2.2]octan-1-amine] it was 699 nM; in that of `Cc1cc(N2Cc3cn(CC45CCC(N)(CC4)CC5)nc3C(C)(C)C2)c2cnn(C)c2n1` [compound 65, 4-((5-(1,6-dimethyl-1H-pyrazolo[3,4-b]pyridin-4-yl)-7,7-dimethyl-4,5,6,7-tetrahydro-2H-pyrazolo[4,3-c]pyridin-2-yl)methyl)bicyclo[2.2.2]octan-1-amine], 2360 nM; in that of `Cc1cc(N2CCc3c(c(C)nn3CC34CCC(N5CCS(=O)(=O)CC5)(CC3)CC4)C2)c2cnn(C)c2n1` [compound 66, 4-(4-((5-(1,6-dimethyl-1H-pyrazolo[3,4-b]pyridin-4-yl)-3-methyl-4,5,6,7-tetrahydro-1H-pyrazolo[4,3-c]pyridin-1-yl)methyl)bicyclo[2.2.2]octan-1-yl)thiomorpholine 1,1-dioxide], 1130 nM.
As for `Cc1cc(N2CCc3c(c(C)nn3CC34CCC(N5CC(O)C5)(CC3)CC4)C2)c2cnn(C)c2n1` [compound 68, 1-(4-((5-(1,6-dimethyl-1H-pyrazolo[3,4-b]pyridin-4-yl)-3-methyl-4,5,6,7-tetrahydro-1H-pyrazolo[4,3-c]pyridin-1-yl)methyl)bicyclo[2.2.]octan-1-yl)azetidin-3-ol], the IC50 came out at 155 nM.
In the case of `Cc1cc(N2CCc3c(c(C)nn3CC34CCC(N(C)C(C)C)(CC3)CC4)C2)c2cnn(C)c2n1` [compound 78, 4-((5-(1,6-dimethyl-1H-pyrazolo[3,4-b]pyridin-4-yl)-3-methyl-4,5,6,7-tetrahydro-1H-pyrazolo[4,3-c]pyridin-1-yl)methyl)-N-isopropyl-N-methylbicyclo[2.2.2]octan-1-amine] it was 474 nM; in that of `Cc1cc(N2CCc3c(c(C)nn3CC34CCC(N)(CC3)CO4)C2)c2cnn(C)c2n1` [compound 81, 1-((5-(1,6-dimethyl-1H-pyrazolo[3,4-b]pyridin-4-yl)-3-methyl-4,5,6,7-tetrahydro-1H-pyrazolo[4,3-c]pyridin-1-yl)methyl)-2-oxabicyclo[2.2.2]octan-4-amine], 395 nM.
Under `Cc1cc(N2CCc3c(c(C)nn3CC34CCC(N5CCCC5)(CC3)CO4)C2)c2cnn(C)c2n1` [compound 82, 5-(1,6-dimethyl-1H-pyrazolo[3,4-b]pyridin-4-yl)-3-methyl-1-((4-(pyrrolidin-1-yl)-2-oxabicyclo[2.2.2]octan-1-yl)methyl)-4,5,6,7-tetrahydro-1H-pyrazolo[4,3-c]pyridine] stands 486 nM; under `Cc1nn(CC23CCC(N)(CC2)CC3)c2c1CN(c1ccnc(-c3ccc(F)cc3)c1)CC2` [compound 87, 4-((5-(2-(4-fluorophenyl)pyridin-4-yl)-3-methyl-4,5,6,7-tetrahydro-1H-pyrazolo[4,3-c]pyridin-1-yl)methyl)bicyclo[2.2.2]octan-1-amine], 1100 nM.
Consider `Cc1ccc(-c2cc(N3CCc4c(c(C)nn4CC45CCC(N)(CC4)CC5)C3)ccn2)c(F)c1` [compound 88, 4-((5-(2-(2-fluoro-4-methylphenyl)pyridin-4-yl)-3-methyl-4,5,6,7-tetrahydro-1H-pyrazolo[4,3-c]pyridin-1-yl)methyl)bicyclo[2.2.2]octan-1-amine], for which the IC50 was 715 nM.
